These results are taken from PMC7178819, “6,7-Dimethoxy-2-phenethyl-1,2,3,4-tetrahydroisoquinoline amides and corresponding ester isosteres as multidrug resistance reversers” (Journal of Enzyme Inhibition and Medicinal Chemistry, 2020).

Structures can show the parent of a compound that is named as a salt.

For data set [1], the target named is T1, P-gp (Homo sapiens, UniProt P08183).
T1 construct: expressed in transfected cells; host or cells: MDCK-MDR1 (Madin-Darby Canine Kidney cells, gift of Prof. P. Borst, NKI-AVL)
Description: Inhibition of Calcein-AM transport in MDCK-MDR1 cells. The format is cell-based. Particulars: Calcein-AM, MDCK-MDR1 cells; mean ± SEM of two experiments. On the procedure: These experiments were carried out as previously described by Teodori et al. with minor modifications. Each cell line (30 000 cells per well) was seeded into black CulturePlate 96/wells plate with 100 µL medium and allowed to become confluent overnight. 100 µL of test compounds were solubilised in culture medium and added to monolayers, with final concentrations ranging from 1 nM to 100 µM. 96/Wells plate was incubated for 30 min in a humidified atmosphere 5% CO2 at 37 °C. Calcein-AM was added in 100 µL of Phosphate Buffered Saline (PBS) to yield a final concentration of 2.5 µM and plate was incubated for 30 min in a humidified atmosphere 5% CO2 at 37 °C. Each well was washed 3 times with ice cold PBS. Saline buffer was added to each well and the plate was read with Victor3 (PerkinElmer) at excitation and emission wavelengths of 485 and 535 nm, respectively. In these experimental conditions, Calcein cell accumulation in the absence and in the presence of tested compounds was evaluated and fluorescence basal level was estimated with untreated cells. In treated wells the increase of fluorescence with respect to basal level was measured. EC50 values were determined by fitting the fluorescence increase percentage versus log[dose].
The interaction potency between the designed compounds and P-gp was evaluated by measuring the transport inhibition of the pro-fluorescent probe Calcein-AM, that is a P-gp substrate, in a cell line overexpressing P-gp (MDCK-MDR1)[47]. The P-gp interacting profile was further investigated with two other assays: the Apparent Permeability (Papp) determination (BA/AB) in Caco-2 cell monolayer[48]^,[49], and the ATP cell depletion in the MDCK-MDR1 cell line[50]. […] Papp determination measures the ratio between two fluxes: from the basolateral to apical compartments (BA, representative of passive diffusion) and from the apical to basolateral compartments (AB, representative of active transport). […] In the same manner, if (BA/AB) >2, the compound should probably be classified as a substrate.

The target of a further data set is T2, BCRP (Homo sapiens, UniProt Q9UNQ0).
T2 construct: expressed in transfected cells; host or cells: MDCK-BCRP (Madin-Darby Canine Kidney cells, gift of Prof. P. Borst, NKI-AVL)
T2 sequence (Q9UNQ0 1-655): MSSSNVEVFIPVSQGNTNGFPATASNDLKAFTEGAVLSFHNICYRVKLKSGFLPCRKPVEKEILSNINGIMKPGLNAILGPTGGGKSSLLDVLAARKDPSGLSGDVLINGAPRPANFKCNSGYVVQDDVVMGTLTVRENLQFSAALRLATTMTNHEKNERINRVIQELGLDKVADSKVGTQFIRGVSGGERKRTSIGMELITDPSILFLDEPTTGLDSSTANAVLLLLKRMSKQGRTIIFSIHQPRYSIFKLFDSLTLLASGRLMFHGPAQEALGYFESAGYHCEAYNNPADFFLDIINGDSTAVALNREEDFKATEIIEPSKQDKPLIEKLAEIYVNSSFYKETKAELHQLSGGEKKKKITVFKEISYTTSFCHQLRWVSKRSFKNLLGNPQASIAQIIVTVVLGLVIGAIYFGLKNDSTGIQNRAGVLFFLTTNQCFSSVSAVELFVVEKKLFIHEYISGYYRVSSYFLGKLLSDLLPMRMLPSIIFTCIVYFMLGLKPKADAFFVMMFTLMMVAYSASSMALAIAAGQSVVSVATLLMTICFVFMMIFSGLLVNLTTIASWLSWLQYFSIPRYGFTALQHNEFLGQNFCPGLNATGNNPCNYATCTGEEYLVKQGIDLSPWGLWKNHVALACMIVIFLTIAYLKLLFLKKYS
Kind of data set: Inhibition of Hoechst 33342 efflux in MDCK-BCRP cells. In kind it is cell-based. Particulars: Hoechst 33342, MDCK-BCRP cells; NA: not active. On the procedure:
These experiments were carried out as described by Teodori et al.[34]. Each cell line (30 000 cells per well) was seeded into black CulturePlate 96/wells plate with 100 µL medium and allowed to become confluent overnight. 100 µL of test compounds were solubilised in culture medium and added to monolayers, with final concentrations ranging from 1 to 100 µM. 96/Wells plate was incubated for 30 min in a humidified atmosphere 5% CO2 at 37 °C. Hoechst 33342 was added in 100 µl of phosphate-buffered saline (PBS) to yield a final concentration of 8 µM and plate was incubated for 30 min in a humidified atmosphere 5% CO2 at 37 °C. The supernatants were drained, and the cells were fixed for 20 min under light protection using 100 µL per well of a 4% PFA solution. Each well was washed three times with ice cold PBS. Saline buffer was added to each well and the plate was read with Victor3 (PerkinElmer) at excitation and emission wavelengths of 340/35 nm and 485/20 nm, respectively. In these experimental conditions, Hoechst 33342 accumulation in the absence and in the presence of tested compounds was evaluated and fluorescence basal level was estimated with untreated cells. In treated wells, the increase of fluorescence with respect to basal level was measured. EC50 values were determined by fitting the fluorescence increase percentage versus log[dose]. […]

Data set [2] addresses T1, P-gp. Kind of data set: ATP cell depletion (ATPlite assay) in MDCK-MDR1 cells. To be noted: Yes/No. In kind it is cell-based. On the procedure: The MDCK-MDR1 cells were seeded into 96-well microplate in 100 µL of complete medium at a density 20,000 cells per well. The plate was incubated overnight (O/N) in a humidified atmosphere 5% CO2 at 37 °C. The medium was removed and 100 µL of complete medium either alone or containing different concentrations (ranging from 1 to 100 µM) of test compounds was added. The plate was incubated for 2 h in a humidified 5% CO2 atmosphere at 37 °C. 50 µL of mammalian cell lysis solution was added to all wells and the plate shacked for five minutes in an orbital shaker. 50 µL of substrate solution was added to all wells and the plate shacked for five minutes in an orbital shaker. The plate was dark adapted for ten minutes and the luminescence was measured.
(§1) The interaction potency between the designed compounds and P-gp was evaluated by measuring the transport inhibition of the pro-fluorescent probe Calcein-AM, that is a P-gp substrate, in a cell line overexpressing P-gp (MDCK-MDR1)[47]. The P-gp interacting profile was further investigated with two other assays: the Apparent Permeability (Papp) determination (BA/AB) in Caco-2 cell monolayer[48]^,[49], and the ATP cell depletion in the MDCK-MDR1 cell line[50]. Taking into account the results of the combined tests, an interacting compound can be classified as substrate or inhibitor. Papp determination measures the ratio between two fluxes: from the basolateral to apical compartments (BA, representative of passive diffusion) and from the apical to basolateral compartments (AB, representative of active transport). […] In the same manner, if (BA/AB) >2, the compound should probably be classified as a substrate. […] The selectivity of ligands 1–26 was evaluated by detecting their activity towards the other ABC transporters MRP1 and BCRP, by measuring the inhibition of the efflux of Calcein-AM (i.e., also a MRP1 substrate) in cells overexpressing MRP1 (MDCK-MRP1 cells), and the inhibition of the efflux of the fluorescent probe Hoechst 33342 (i.e. a BCRP substrate) in cells overexpressing BCRP (MDCK-BCRP cells), respectively.
Background: ATP-based viability assays read luminescence as a measure of living cells.

Data set [3] can be described thus: Apparent permeability (Papp) determination (BA/AB) in Caco-2 cell monolayer. In kind it is in vitro ADME. Particulars: human, Caco-2 monolayer. On the procedure:
Caco-2 cells were seeded onto a Millicell® assay system (Millipore), where a cell monolayer is set in between a filter cell and a receiver plate, at a density of 10 000 cells/well[46]. The culture medium was replaced every 48 h and the cells kept for 21 days in culture. The Trans Epithelial Electrical Resistance (TEER) of the monolayers was measured daily, before and after the experiment, using an epithelial volt-ohmmeter (Millicell®-ERS). Generally, TEER values greater than 1000 Ω for a 21 days culture, are considered optimal.
After 21 days of Caco-2 cell growth, the medium was removed from filter wells and from the receiver plate, which were filled with fresh HBSS buffer (Invitrogen). This procedure was repeated twice, and the plates were incubated at 37 °C for 30 min. After incubation time, the HBSS buffer was removed and drug solutions and reference compounds were added to the filter well at the concentration of 100 µM, while fresh HBSS was added to the receiver plate. The plates were incubated at 37 °C for 120 min. Afterwards, samples were removed from the apical (filter well) and basolateral (receiver plate) side of the monolayer to measure the permeability.
as §1
(In general: Passage across Caco-2 layers is used to estimate intestinal permeability.)

The test system of the next data set is MDCK-MDR1 cells. Description: Co-administration assay with doxorubicin (MTT), MDCK-MDR1 cells. In kind it is cell-based, canine. Particulars: 10 µM, MDCK cells overexpressing P-gp. On the procedure:
The co-administration assay with doxorubicin was performed in MDCK-MDR1, HT29, HT29/DX, A549 and A549/DX cells at 48 h. On day 1, 10,000 cells/well were seeded into 96-well plates in a volume of 100 µL of fresh medium. On day 2, the tested drug was added alone to the cells at different concentrations (ranging from 40 nM to 10 µM). On day 3, the medium was removed and the drug at the same concentrations was added alone and in co-administration with 10 µM doxorubicin to the cells. After the established incubation time with the tested drug, MTT (0.5 mg/mL) was added to each well, and after 3 − 4 h incubation at 37 °C, the supernatant was removed. The formazan crystals were solubilised using 100 µL of DMSO/EtOH (1:1), and the absorbance values at 570 and 630 nm were determined on the microplate reader HTX Synergy (Bio-Tek Instruments).

T1 sequence (P08183 whole entry): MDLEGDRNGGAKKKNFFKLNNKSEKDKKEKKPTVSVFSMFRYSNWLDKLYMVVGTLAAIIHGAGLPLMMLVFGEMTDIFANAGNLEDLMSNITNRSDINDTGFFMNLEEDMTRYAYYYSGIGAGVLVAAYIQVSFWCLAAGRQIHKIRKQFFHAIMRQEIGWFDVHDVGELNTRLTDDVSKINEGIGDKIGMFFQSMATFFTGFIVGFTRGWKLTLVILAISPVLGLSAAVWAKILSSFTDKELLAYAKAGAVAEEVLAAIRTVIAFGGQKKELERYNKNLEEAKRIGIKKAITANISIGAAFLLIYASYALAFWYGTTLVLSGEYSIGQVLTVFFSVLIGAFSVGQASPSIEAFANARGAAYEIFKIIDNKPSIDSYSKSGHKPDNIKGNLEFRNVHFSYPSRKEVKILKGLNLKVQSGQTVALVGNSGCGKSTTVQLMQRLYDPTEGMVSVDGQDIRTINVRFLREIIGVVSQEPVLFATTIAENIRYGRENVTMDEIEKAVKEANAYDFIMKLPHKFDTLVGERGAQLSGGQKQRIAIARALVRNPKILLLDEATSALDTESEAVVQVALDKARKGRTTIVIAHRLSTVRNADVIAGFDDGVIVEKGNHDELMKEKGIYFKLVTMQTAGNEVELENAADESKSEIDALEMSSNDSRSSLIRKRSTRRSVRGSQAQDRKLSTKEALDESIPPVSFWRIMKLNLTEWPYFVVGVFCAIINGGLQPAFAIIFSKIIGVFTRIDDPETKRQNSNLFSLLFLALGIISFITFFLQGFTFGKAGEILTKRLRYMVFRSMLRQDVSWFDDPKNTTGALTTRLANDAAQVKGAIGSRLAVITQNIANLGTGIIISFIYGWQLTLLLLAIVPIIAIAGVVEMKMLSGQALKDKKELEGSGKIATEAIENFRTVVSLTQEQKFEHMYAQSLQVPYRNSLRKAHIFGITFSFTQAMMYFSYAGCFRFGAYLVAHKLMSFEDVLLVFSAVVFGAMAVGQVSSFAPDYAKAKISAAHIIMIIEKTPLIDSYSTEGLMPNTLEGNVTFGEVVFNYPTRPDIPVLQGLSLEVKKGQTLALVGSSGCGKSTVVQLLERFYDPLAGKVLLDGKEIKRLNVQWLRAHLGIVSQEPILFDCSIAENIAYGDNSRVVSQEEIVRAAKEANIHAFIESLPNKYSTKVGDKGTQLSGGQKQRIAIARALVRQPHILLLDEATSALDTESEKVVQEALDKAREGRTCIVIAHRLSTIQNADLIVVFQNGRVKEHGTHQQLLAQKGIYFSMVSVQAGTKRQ

Broadly, the melting point is the temperature, or range, at which the solid turns liquid. As to `COc1ccc2nccc(C(=O)Nc3ccc(CCN4CCc5cc(OC)c(OC)cc5C4)cc3)c2c1` (as salt: hydrochloride) [Compound 13, N-(4–(2-(6,7-dimethoxy-3,4-dihydroisoquinolin-2(1H)-yl)ethyl)phenyl)-6-methoxyquinoline-4-carboxamide], the melting point fell in the range of 228 to 230 °C. For the compound `COc1cc2c(cc1OC)CN(CCc1ccc(NC(=O)c3c(OC)c(OC)cc4ccccc34)cc1)CC2` (as salt: hydrochloride) [Compound 8, N-(4–(2-(6,7-dimethoxy-3,4-dihydroisoquinolin-2(1H)-yl)ethyl)phenyl)-2,3-dimethoxy-1-naphthamide], the melting point fell in the range of 245 to 248 °C. The compound `COc1cc2c(cc1OC)CN(CCc1ccc(NC(=O)c3c(OC)ccc4ccccc34)cc1)CC2` (as salt: hydrochloride) [Compound 7, N-(4–(2-(6,7-dimethoxy-3,4-dihydroisoquinolin-2(1H)-yl)ethyl)phenyl)-2-methoxy-1-naphthamide] registered a melting point of 239 to 241 °C.

In general, EC50 refers to the midpoint of the concentration-response curve. Broadly, the efflux ratio is the permeability from basolateral to apical divided by that in the opposite direction, in the common usage. On to `COc1cc2c(cc1OC)CN(CCc1ccc(NC(=O)c3cc(OC)c(OC)cc3NC(=O)c3cnc4ccccc4c3)cc1)CC2` [tariquidar, reference compound], for which the half-maximal effective concentration (EC50) at P-gp [1] is 44 ± 1 nM; at BCRP it was 10 ± 5 nM. Also, the ATP cell depletion entry at P-gp [2] is “Yes^f”. The efflux ratio at 120 min, 100 µM in data set [3] was greater than 20.

For `COc1cc2c(cc1OC)CN(CCc1ccc(NC(=O)c3c(OC)cccc3OC)cc1)CC2` (as salt: hydrochloride) [Compound 4, N-(4–(2-(6,7-dimethoxy-3,4-dihydroisoquinolin-2(1H)-yl)ethyl)phenyl)-2,6-dimethoxybenzamide], the melting point fell in the range of 212 to 214 °C. Regarding `COc1cccc2c1C(=O)c1c(O)c3c(c(O)c1C2=O)C[C@@](O)(C(=O)CO)C[C@@H]3O[C@H]1C[C@H](N)[C@H](O)[C@H](C)O1` [doxorubicin, reference compound], the “cytotoxicity of doxorubicin alone” value with MDCK-MDR1 cells is reported as “did not show cytotoxicity”.
